What all share (assay type): cell-based, human
One assay concerns HeLa BRCA2 SX. Kind of assay: Cell survival, trypan blue counting. To be noted: 4.80 μM of AsiDNA and/or 0.1 μM of Ola; day 6 after treatment.
Assay [1] relates to Breast cancer cell lines MDAMB231. Briefly: Cell survival with DT01 and PARP inhibitors (Example 1, FIG. 1). To be noted: DT01 100 or 333 μg/ml plus Olaparib 0.1, 1 μM or Veliparib 1, 10, 50 μM; 6 days. On the procedure:
Breast cancer cell lines MDAMB231 were treated with 100 μg/ml (Black, Squares) or 333 μg/ml (Grey, Crosses) of DT01 or no DT01 (Black, Diamond) and exposed to either 0, 0.1 and 1 μM of Olaparib (upper panel) or 1, 10 and 50 μM Veliparib (lower panel). Survival was measured 6 days after treatment using trypan blue to detect living cells. The data are presented as % of the non-treated control.
The human cell lines were grown in complete RPMI (Gibco, Cergy Pontoise, France) supplemented with 10% fetal bovine serum (ATGC, Orléans, France), 1% sodium pyruvate, streptomycin ([…]) and penicillin ([…]) (Invitrogen, Carlsbad, Calif., USA). Cells were maintained at 37° C. under a 5% CO2 atmosphere, at 100% humidity. Treatments were performed by adding nucleotides (DT01 and others) or/and PARP inhibitors at time zero in medium without serum. The medium was changed with fresh medium containing fetal bovine serum 24 hours after beginning of treatment. Cells were let to grow for 4 additional days (5 days after treatment), treated with trypsin and counted for total number of cells. Trypan blue (0.4%) was added for counting the living cells (uncolored) in the population.

For another assay, the system named is MO59J. Kind of assay: Cell survival, trypan blue counting. To be noted: 4.80 μM of AsiDNA and/or 0.1 μM of Ola; day 6 after treatment.
A further assay deals with MCF7. Briefly: Cell death and proliferation. To be noted: 0.1 μM Ola, 4.8 μM AsiDNA; sensitive = difference in % dead cells higher than two-fold. On the procedure:
(§1) Efficacy of Ola and AsiDNA was assessed by measuring cell death and proliferation in 12BC cell lines including 4BRCA-mutated cell lines (FIGS. 4A and B and FIG. 5). In addition, HeLa cells silenced for BRCA1 or BRCA2 genes were used as a control of BRCA mutation factor and 3 immortalized mammary cell lines (MCF10A, MCF12A and 184B5) as non-tumor controls. The concentration of the drugs (0.1 μM for Ola and 4.8 μM for AsiDNA) were chosen based on the 75-80% survival in the BC227 BRCA2^−/− mutant. […] Ola and AsiDNA treatments had no effect on the three control non-tumor cell lines.
(§2) Cells were grown according to the supplier's instructions.

The subject of a further assay is HCC70. Briefly: Cell death and proliferation. To be noted: 0.1 μM Ola, 4.8 μM AsiDNA; sensitive = difference in % dead cells higher than two-fold. The protocol:
as §1, §2

A further assay has as its system HCC1143. Briefly: Cell death and proliferation. To be noted: 0.1 μM Ola, 4.8 μM AsiDNA; sensitive = difference in % dead cells higher than two-fold. On the procedure: as §1, §2
In another assay the test system is BT20. Briefly: Cell death and proliferation. Conditions: 0.1 μM Ola, 4.8 μM AsiDNA; sensitive = difference in % dead cells higher than two-fold. On the procedure: as §1, §2
In the next assay the test system is HeLa CTL KD. Briefly: Cell survival, trypan blue counting. Conditions: 4.80 μM of AsiDNA and/or 0.1 μM of Ola; day 6 after treatment.
Another assay has as its system XRCC1. Kind of assay: XRCC1-eYFP recruitment to laser damage sites in MDAMB231 cells. To be noted: MDAMB231, 24 h of treatment with Ola (1 μM) and/or AsiDNA (16 μM). The protocol: FIG. 8: Olaparib inhibits XRCC1 recruitment to damage sites independently of AsiDNA. (A) Representative images of XRCC1-eYFP recruitment 40 secondes after laser damage and (B) kinetic of XRCC1-eYFP recruitment in MDAMB231 cells after 24 h of treatment with Ola (1 μM) and/or AsiDNA (16 μM). ns: not significant; ****: p<0.0001. These experiments were performed with a Leica SP5 confocal system, attached to a DMI6000 stand using a 63/1.4 objective, under a controlled environment (37° C., 5% CO2). All records were made using the appropriate sampling frequency (512_512 images, line average of four and zooming set to eight) and an argon laser line (514 nm for YFP) adapted to the fluorescent protein of interest. In the first step, two images were acquired within a period of 2-3 s at a laser energy setting sufficiently low not to induce any photodynamic damage. The 405-nm laser line (diode) was then set to maximum output for 100 ms and focused onto a single spot of constant size (176 nm) within the nucleus to cause a point of photo damage with a reproducible amount of energy. Recruitment of the protein of interest was then monitored by fluorescence using the same setting as for the pre-damage sequence. Laser damage was induced 24 h after treatment with AsiDNA (16 μM), olaparib (1 μM) or both. Images were captured at 2 s intervals for the following 52 s. […]

A further assay relates to Hut78. Kind of assay: Cell survival, trypan blue counting. Conditions: 4.80 μM of AsiDNA and/or 0.1 μM of Ola; day 6 after treatment.
A further assay has as its system BRCA^−/− cell lines. Kind of assay: Cell death and proliferation in BRCA-mutated cell lines. Conditions: 0.1 μM Ola, 4.8 μM AsiDNA; sensitive = difference in % dead cells higher than two-fold. The protocol:
as §1, §2

Molecules are shown by their SMILES.

Method for HeLa BRCA2 SX: (§3) Cells were grown according to the supplier's instructions. Cell lines were maintained at 37° C. in a humidified atmosphere at 5% CO2.
(§4) AsiDNA or PARPi cytotoxicity was measured by relative survival and cell death quantification. Adherent cells were seeded in 24-well culture plates at appropriate densities and incubated 24 hours at 37° C. before AsiDNA and/or PARPi addition. Cells were harvested day 6aftertreatment, stained with 0.4% trypan blue (Sigma Aldrich, Saint-Louis, USA) and counted with a Burker chamber. Cell survival was calculated as ratio of living treated cells to living mock-treated cells. Cell death was calculated as the number of dead cells on the total number of counted cells. Additivity of the toxicity was calculated by the product of cell survivals to AsiDNA and cell survivals to PARPi.
Method for HeLa CTL KD: as §3, §4
Method for Hut78: as §3, §4
Method for MO59J: as §3, §4

As to `O=C(c1cc(Cc2n[nH]c(=O)c3ccccc23)ccc1F)N1CCN(C(=O)C2CC2)CC1` [Olaparib, 4-[(3-[(4-cyclopropylcarbonyl)piperazin-4-yl]carbonyl)-4-fluorophenyl]methyl(2H)-phthalazin-1-one], the “Survival (%/NT)” value in the assay on HeLa BRCA2 SX turned out to be 65.0 %/NT; with MO59J, 87.5 %/NT; in the assay with HeLa CTL KD it was 97.2 %/NT; in the assay on Hut78 it was 85.8 %/NT. In addition, the “survival to combined treatment with DT01 versus expected added effect of both single treatments” value in assay [1] was “synergic effect”. Also, the sensitivity to treatment result is listed as “resistant to both treatments” in the assay with MCF7; “resistant to both treatments” with HCC70; “sensitive only to AsiDNA” with HCC1143; “resistant to both treatments” with BT20; “sensitive to both treatments” in the assay with BRCA^−/− cell lines. Further, in the assay on XRCC1, the XRCC1 foci recruitment entry is on record as “significantly delayed”.

For the origin of these results see patent publication US10563197B2, “Use of a combination of Dbait molecule and PARP inhibitors to treat cancer” (INSTITUT CURIE, priority 2015, dated 2020).
